For 24 molecules, IC50 results are on record in US8202885B2, “Bridged six-membered ring compounds” (Actelion Pharmaceuticals Ltd., priority 2007, dated 2012).

Each structure is given as a SMILES string. pIC50: −log10 of the molar value. Some results are limits rather than exact numbers.

This test concerns human Cav3.1 Cav3.2 or Cav3.3 channel. The experiment in a line: In vitro assay T channel (FLIPR calcium fluorescence). The settings on record: HEK293 cells expressing human Cav3.1, Cav3.2 or Cav3.3; 10 mM Ca2+-induced fluo-4 fluorescence; determined up to 10 μM; read-out: T channel antagonistic activity IC50. The class given is cell-based. The method, boiled down:
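HEK293 cells stably expressing human Cav3.1, Cav3.2 or Cav3.3 loaded with fluo-4 AM (3 μM), preincubated 3 min with antagonist, then stimulated with 10 mM Ca2+ in TEA-chloride/HEPES buffer pH 7.2. FLIPR fluorescence read every 2 s for 8 min; IC50 from peak area versus vehicle, tested up to 10 μM.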
On to `CN(CC[C@]1(O)C[C@H]2CC[C@@H]1C=C2c1ccccc1)Cc1nc2ccccc2[nH]1` (relative stereo) [Example 14, rac-(1R*,2R*,4R*)-2-{2-[(1H-Benzoimidazol-2-ylmethyl)-methyl-amino]-ethyl}-5-phenyl-bicyclo[2.2.2]oct-5-en-2-ol], for which the negative logarithm of the IC50 (pIC50) was 5.05.

With `CN(CCCc1nc2ccccc2[nH]1)CC[C@]1(O)C[C@H]2CC[C@@H]1C=C2c1cccnc1` (relative stereo) [Example 9, rac-(1R*,2R*,4R*)-2-(2-{[3-(1H-Benzoimidazol-2-yl)-propyl]-methyl-amino}-ethyl)-5-pyridin-3-yl-bicyclo[2.2.2]oct-5-en-2-ol], the pIC50 is under 5.00.

With `CC(C)C(=O)O[C@@]1(CCN(C)CCCc2nc3ccccc3[nH]2)C[C@H]2CC[C@@H]1C=C2c1ncco1` (relative stereo) [Example 25A, rac-Isobutyric acid (1R*,2R*,4R*)-2-(2-{[3-(1H-benzoimidazol-2-yl)-propyl]-methyl-amino}-ethyl)-5-oxazol-2-yl-bicyclo[2.2.2]oct-5-en-2-yl ester], the negative-log IC50 (pIC50) was 5.80.

With `COc1cccc(C2=C[C@H]3CC[C@@H]2C[C@@]3(O)CCN(C)CCCc2nc3ccccc3[nH]2)c1` (relative stereo) [Example 2, rac-(1R*,2R*,4R*)-2-(2-{[3-(1H-Benzoimidazol-2-yl)-propyl]-methyl-amino}-ethyl)-5-(3-methoxy-phenyl)-bicyclo[2.2.2]oct-5-en-2-ol], the pIC50 is 5.22.

Regarding `Cc1cc2cc(CCCN(C)CC[C@]3(O)C[C@H]4CC[C@@H]3C=C4c3ccccc3)cnc2o1` (relative stereo) [Example 42, rac-(1R*,2R*,4R*)-2-(2-{Methyl-[3-(2-methyl-furo[2,3-b]pyridin-5-yl)-propyl]-amino}-ethyl)-5-phenyl-bicyclo[2.2.2]oct-5-en-2-ol], the pIC50 is under 5.00.

Turning to `CN(CCCc1nc2ccccc2[nH]1)CC[C@]1(O)C[C@H]2CC[C@@H]1C=C2c1ccccc1` (relative stereo) [Example 1, rac-(1R*,2R*,4R*)-2-(2-{[3-(1H-Benzoimidazol-2-yl)-propyl]-methyl-amino}-ethyl)-5-phenyl-bicyclo[2.2.2]oct-5-en-2-ol], the pIC50 is 5.64.

For the molecule `COc1cccc2[nH]c(CCCN(C)CC[C@]3(OC(=O)C(C)C)C[C@H]4CC[C@@H]3C=C4c3ccccc3)nc12` (relative stereo) [Example 26A, rac-Isobutyric acid (1R*,2R*,4R*)-2-(2-{[3-(4-methoxy-1H-benzoimidazol-2-yl)-propyl]-methyl-amino}-ethyl)-5-phenyl-bicyclo[2.2.2]oct-5-en-2-yl ester], the pIC50 was 5.68.

As to `CN(CCCc1nc2ccccc2[nH]1)CC[C@]1(O)C[C@H]2CC[C@@H]1C=C2c1ccc(F)cc1` (relative stereo) [Example 8, rac-(1R*,2R*,4R*)-2-(2-{[3-(1H-Benzoimidazol-2-yl)-propyl]-methyl-amino}-ethyl)-5-(4-fluoro-phenyl)-bicyclo[2.2.2]oct-5-en-2-ol], the pIC50 was 5.75.

For `CC(C)C(=O)OC1(CCN(C)CCCc2nc3ccccc3[nH]2)CC2CCC1C=C2c1ccccc1` [Example 11A, Isobutyric acid (1R,2R,4R)-2-(2-{[3-(1H-benzoimidazol-2-yl)-propyl]-methyl-amino}-ethyl)-5-phenyl-bicyclo[2.2.2]oct-5-en-2-yl ester or isobutyric acid (1S,2S,4S)-2-(2-{[3-(1H-benzoimidazol-2-yl)-propyl]-methyl-amino}-ethyl)-5-phenyl-bicyclo[2.2.2]oct-5-en-2-yl ester], the pIC50 is 5.33.

As for `CN(CCCc1nc2cc(Cl)c(Cl)cc2[nH]1)CC[C@]1(O)C[C@H]2CC[C@@H]1C=C2c1ccccc1` (relative stereo) [Example 27, rac-(1R*,2R*,4R*)-2-(2-{[3-(5,6-Dichloro-1H-benzoimidazol-2-yl)-propyl]-methyl-amino}-ethyl)-5-phenyl-bicyclo[2.2.2]oct-5-en-2-ol], the pIC50 is under 5.00.

As to `CC(C)C(=O)O[C@@]1(CCN(C)CCCc2ccccc2)C[C@H]2CC[C@@H]1C=C2c1ccccc1` (relative stereo) [Example 15A, rac-Isobutyric acid (1R*,2R*,4R*)-2-{2-[methyl-(3-phenyl-propyl)-amino]-ethyl}-5-phenyl-bicyclo[2.2.2]oct-5-en-2-yl ester], the pIC50 was 5.06.

Consider `COC(C)(C)C(=O)NCCCN(C)CC[C@]1(O)C[C@H]2CC[C@@H]1C=C2c1ccccc1` (relative stereo) [Example 44, rac-N-(3-{[2-((1R*,2R*,4R*)-2-Hydroxy-5-phenyl-bicyclo[2.2.2]oct-5-en-2-yl)-ethyl]-methyl-amino}-propyl)-2-methoxy-2-methyl-propionamide], for which the pIC50 is under 5.00.

Consider `CC(C)C(=O)O[C@@]1(CCN(C)CCCc2nc3ccccc3[nH]2)C[C@H]2CC[C@@H]1C=C2c1cccnc1` (relative stereo) [Example 9A, rac-Isobutyric acid (1R*,2R*,4R*)-2-(2-{[3-(1H-benzoimidazol-2-yl)-propyl]-methyl-amino}-ethyl)-5-pyridin-3-yl-bicyclo[2.2.2]oct-5-en-2-yl ester], for which the pIC50 is 5.63.

On to `Cc1cccc(C2=C[C@H]3CC[C@@H]2C[C@]3(CCN(C)CCCc2nc3ccccc3[nH]2)OC(=O)C(C)C)c1` (relative stereo) [Example 5A, rac-Isobutyric acid (1R*,2R*,4R*)-2-(2-{[3-(1H-benzoimidazol-2-yl)-propyl]-methyl-amino}-ethyl)-5-(3-methyl-phenyl)-bicyclo[2.2.2]oct-5-en-2-yl ester], for which the pIC50 is 5.46.

For `CC(C)C(=O)O[C@@]1(CCN(C)CCCc2nc3c(Cl)cccc3[nH]2)C[C@H]2CC[C@@H]1C=C2c1ccccc1` (relative stereo) [Example 57A, rac-Isobutyric acid (1R*,2R*,4R*)-2-(2-{[3-(4-chloro-1H-benzoimidazol-2-yl)-propyl]-methyl-amino}-ethyl)-5-phenyl-bicyclo[2.2.2]oct-5-en-2-yl ester], the pIC50 was 5.70.

Turning to `COc1ccc(C)c2nc(CCCN(C)CC[C@]3(O)C[C@H]4CC[C@@H]3C=C4c3ccccc3)[nH]c12` (relative stereo) [Example 30, rac-(1R*,2R*,4R*)-2-(2-{[3-(7-Methoxy-4-methyl-1H-benzoimidazol-2-yl)-propyl]-methyl-amino}-ethyl)-5-phenyl-bicyclo[2.2.2]oct-5-en-2-ol], the pIC50 is 5.75.

Turning to `CC(C)C(=O)O[C@@]1(CCN(C)CCCc2nc3c(C(F)(F)F)cc(C(F)(F)F)cc3[nH]2)C[C@H]2CC[C@@H]1C=C2c1ccccc1` (relative stereo) [Example 62A, rac-Isobutyric acid (1R*,2R*,4R*)-2-(2-{[3-(4,6-bis-trifluoromethyl-1H-benzoimidazol-2-yl)-propyl]-methyl-amino}-ethyl)-5-phenyl-bicyclo[2.2.2]oct-5-en-2-yl ester], the pIC50 is 6.33.

Turning to `CC(C)C(=O)O[C@@]1(CCN(C)CCCc2nc3cc(Cl)c(Cl)cc3[nH]2)C[C@H]2CC[C@@H]1C=C2c1ccccc1` (relative stereo) [Example 27A, rac-Isobutyric acid (1R*,2R*,4R*)-2-(2-{[3-(5,6-dichloro-1H-benzoimidazol-2-yl)-propyl]-methyl-amino}-ethyl)-5-phenyl-bicyclo[2.2.2]oct-5-en-2-yl ester], the pIC50 is 5.17.

Regarding `CC(C)C(=O)O[C@@]1(CCN(C)CCCNC(=O)C(C)(C)C)C[C@H]2CC[C@@H]1C=C2c1ccccc1` (relative stereo) [Example 45A, rac-Isobutyric acid (1R*,2R*,4R*)-2-(2-{[3-(2,2-dimethyl-propionylamino)-propyl]-methyl-amino}-ethyl)-5-phenyl-bicyclo[2.2.2]oct-5-en-2-yl ester], the pIC50 was 5.77.

Take `COc1cccc2[nH]c(CCCN(C)CC[C@]3(O)C[C@H]4CCC[C@@H]3C=C4c3ccccc3)nc12` (relative stereo) [Example 36, rac-(1R*,5R*,6R*)-6-(2-{[3-(4-Methoxy-1H-benzoimidazol-2-yl)-propyl]-methyl-amino}-ethyl)-8-phenyl-bicyclo[3.2.2]non-8-en-6-ol]: the pIC50 is 5.87.

For the molecule `CC(C)C(=O)O[C@@]1(CCN(C)CCCc2nc3ccccc3[nH]2)C[C@H]2CC[C@@H]1C=C2c1ccccc1` (relative stereo) [Example 1A, rac-Isobutyric acid (1R*,2R*,4R*)-2-(2-{[3-(1H-Benzoimidazol-2-yl)-propyl]-methyl-amino}-ethyl)-5-phenyl-bicyclo[2.2.2]oct-5-en-2-yl ester], the pIC50 is 5.31.

Take `COc1cccc2[nH]c(CCCN(C)CC[C@]3(OC(=O)C(C)(C)OC)C[C@H]4CC[C@@H]3C=C4c3ccccc3)nc12` (relative stereo) [Example 26F, rac-2-Methoxy-2-methyl-propionic acid (1R*,2R*,4R*)-2-(2-{[3-(4-methoxy-1H-benzoimidazol-2-yl)-propyl]-methyl-amino}-ethyl)-5-phenyl-bicyclo[2.2.2]oct-5-en-2-yl ester]: the pIC50 was 6.02.

Turning to `CN(CCCc1nc2ccccc2[nH]1)CCC1(O)CC2CCC1C=C2c1ccccc1` (single isomer, unassigned) [Example 12, (1R,2R,4R)-2-(2-{[3-(1H-Benzoimidazol-2-yl)-propyl]-methyl-amino}-ethyl)-5-phenyl-bicyclo[2.2.2]oct-5-en-2-ol or (1S,2S,4S)-2-(2-{[3-(1H-benzoimidazol-2-yl)-propyl]-methyl-amino}-ethyl)-5-phenyl-bicyclo[2.2.2]oct-5-en-2-ol], the pIC50 was under 5.00.

For the molecule `CC(C)C(=O)O[C@@]1(CCN(C)CCCc2cncc3ccccc23)C[C@H]2CC[C@@H]1C=C2c1ccccc1` (relative stereo) [Example 48A, rac-Isobutyric acid (1R*,2R*,4R*)-2-{2-[(3-isoquinolin-4-yl-propyl)-methyl-amino]-ethyl}-5-phenyl-bicyclo[2.2.2]oct-5-en-2-yl ester], the pIC50 was under 5.00.
